Literature values as cited in patent US11027026B2, “Polymer, and contrast agent for photoacoustic imaging, including the polymer” (CANON KABUSHIKI KAISHA, priority 2014, dated 2021).

Conditions: in vivo

CC1(C)C(/C=C/C=C/C=C/C=C2/N(CCCCS(=O)(=O)[O-])c3ccc4ccccc4c3C2(C)C)=[N+](CCCCS(=O)(=O)[O-])c2ccc3ccccc3c21.[Na+] [ICG, indocyanine green]
Half-life in blood: about several minutes
